Experimental data taken from patent US11304957B2, “Substituted quinazolines for inhibiting kinase activity” (NeuPharma, Inc., priority 2013, dated 2022).

Tests used:
H1975 cells = assay: Inhibition of cancer cell growth, MTT assay, H1975; conditions: read-out: IC50 H1975, 72 h, EGFR L858R/T790M
Procedure: Inhibition of cell growth by compounds was measured using MTT assay (Mosmann, T., Journal of Immunological Methods, 1983, 65, 55-63). Tumor cell lines were purchased from ATCC (American Type Culture Collection, Manassas, Va.). All cell lines were maintained in RPMI 1640 (Hyclone) supplemented with 10% fetal bovine serum (FBS, Hyclone), glutamine (2 mM, Hyclone), and antibiotics (penicillin 100 U/mL and streptomycin 50 μg/mL) at 37° C. in a humidified atmosphere of 5% CO2 in air. Taxol (as a positive control, Sigma) and compounds were dissolved in DMSO (Sigma), and the final concentration of DMSO in the medium was 1%. Tumor cells were plated in 96-well plates at densities of about 4000 cells/well of a 96-well plate and allowed to adhere/grow for 24 h. They were then treated with various concentrations of drug for 72 h. […] The number of cells remaining after 72 h was compared to the number of viable cells at the time of compound addition by measuring the absorbance at 570 nm, allowing for the calculation of growth inhibition.
All concentrations of compounds were tested in triplicate and controls were averaged over 4 wells. IC50 was calculated by plotting the concentration of compound vs the percentage of inhibition in treated wells using GraphPad Prism 5. […]

EGFR (ErbB1) T790M L858R = EGFR (ErbB1) T790M L858R (Homo sapiens (Human), UniProt P00533, L858R/T790M); assay: Z'-LYTE kinase inhibition assay, EGFR L858R/T790M; assay type: biochemical; conditions: for inhibition at 0.0137 µM: read-out: % inhibition EGFR L858R/T790M (Compound at 0.0137 μM)
Procedure: Inhibitory activities of compounds against BTK, EGFR and EGFR mutants (EGFR L858R, EGFR T790M, EGFR L858R/T790M), FGFR1, FGFR2, JAK2, JAK3 and KDR were measured by Invitrogen using Z'-LYTE® Method as briefly described in the following. Test Compounds are screened in 1% DMSO (final) in the well. For 10 point titrations, 3-fold serial dilutions are conducted from the starting concentration. All ATP Solutions are diluted to a 4× working concentration in Kinase Buffer (50 mM HEPES pH 7.5, 0.01% BRIJ-35, 10 mM MgCl2, 1 mM EGTA). Peptide/Kinase Mixtures are diluted to a 2× working concentration in the appropriate Kinase Buffers as described below. (iv) Peptide/Kinase Mixtures for Measurement of EGFR (ErbB1) T790M L858R: The 2×EGFR (ErbB1) […] mixture is prepared in 50 mM HEPES pH 6.5, 0.01% BRIJ-35, 10 mM MgCl2, 1 mM EGTA, 0.02% NaN3. […] After the 1 hour Kinase Reaction incubation, 5 μL of a 1:64 dilution of Development Reagent B is added. Reaction starts by 30-second shaking of mixture consisting of 2.5 μL 4× test compound, 5 μL 2× kinase reaction mixture and 2.5 μL 4×ATP Solution on Bar-coded Corning, low volume NBS, black 384-well plate (Corning Cat. #3676). Then the mixture is incubated for 60-minute at room temperature for the kinase reaction, followed by addition of 5 μL of a 1:1024 dilution of development reagent A and 30-second plate shake. The mixture is then incubated for another 60-minute at room temperature for development reaction. Finally fluorescence is read by plate reader. To determine IC50 of a compound against EGFR, EGFR mutant and other kinases, a series of concentrations of the compound were tested for the inhibition.

EGFR (ErbB1) = EGFR (ErbB1) (Homo sapiens (Human), UniProt P00533); assay: Z'-LYTE kinase inhibition assay, EGFR (ErbB1); assay type: biochemical
Procedure: Inhibitory activities of compounds against BTK, EGFR and EGFR mutants (EGFR L858R, EGFR T790M, EGFR L858R/T790M), FGFR1, FGFR2, JAK2, JAK3 and KDR were measured by Invitrogen using Z'-LYTE® Method as briefly described in the following. Test Compounds are screened in 1% DMSO (final) in the well. For 10 point titrations, 3-fold serial dilutions are conducted from the starting concentration. All ATP Solutions are diluted to a 4× working concentration in Kinase Buffer (50 mM HEPES pH 7.5, 0.01% BRIJ-35, 10 mM MgCl2, 1 mM EGTA). Peptide/Kinase Mixtures are diluted to a 2× working concentration in the appropriate Kinase Buffers as described below. (i) Peptide/Kinase Mixtures for Measurement of EGFR (ErbB1): The 2×EGFR (ErbB1)/[…] mixture is prepared in 50 mM HEPES pH 7.5, 0.01% BRIJ-35, 10 mM MgCl2, 4 mM MnCl2, 1 mM EGTA, 2 mM DTT. The final 10 μL Kinase Reaction consists of 1.1-5.25 ng EGFR (ErbB1) and 2 μM […] in 50 mM HEPES pH 7.5, 0.01% BRIJ-35, 10 mM MgCl2, 2 mM MnCl2, 1 mM EGTA, 1 mM DTT. After the 1 hour Kinase Reaction incubation, 5 μL of a 1:64 dilution of Development Reagent B is added. Reaction starts by 30-second shaking of mixture consisting of 2.5 μL 4× test compound, 5 μL 2× kinase reaction mixture and 2.5 μL 4×ATP Solution on Bar-coded Corning, low volume NBS, black 384-well plate (Corning Cat. #3676). […] Finally fluorescence is read by plate reader. […]

H1975 tumor xenograft = assay: Inhibition of tumor growth in H1975 xenograft model; assay type: in vivo, BALB/c female nude mice; conditions: Table 7, 60 mg/kg, oral, QD × 14; for Tumor Volume Pre-treatment: baseline
Procedure: H1975 cells were implanted in BALB/c female nude mice and grown as tumor xenografts. When tumors achieved 120-200 mm^3, mice were assigned into treatment and control groups using randomized block design based upon their tumor volumes. Each group contained 6 tumor-bearing mice. Tumors were measured twice weekly in two dimensions using a caliper, and the tumor volume was calculated from two-dimensional measurements using the equation V=0.5×a×b^2 where a and b are the long and short diameters of the tumor, respectively. Relative tumor volume (RTV) was defined as TVt/TVi, the ratio of the volume on a given day (TVt) and the volume at the start of treatment (TVi). Relative tumor growth rate (T/C) was defined as RTVT/RTVC, the ratio of relative tumor volume of treatment group (RTVT) and relative tumor volume of control group (RTVC) on a given day. Inhibition of tumor growth in a H1975 tumor xenograft model by some compounds is shown below in Table 6 and Table 7.

Sequence of EGFR (ErbB1) T790M L858R (P00533 25-1210 T790M/L858R): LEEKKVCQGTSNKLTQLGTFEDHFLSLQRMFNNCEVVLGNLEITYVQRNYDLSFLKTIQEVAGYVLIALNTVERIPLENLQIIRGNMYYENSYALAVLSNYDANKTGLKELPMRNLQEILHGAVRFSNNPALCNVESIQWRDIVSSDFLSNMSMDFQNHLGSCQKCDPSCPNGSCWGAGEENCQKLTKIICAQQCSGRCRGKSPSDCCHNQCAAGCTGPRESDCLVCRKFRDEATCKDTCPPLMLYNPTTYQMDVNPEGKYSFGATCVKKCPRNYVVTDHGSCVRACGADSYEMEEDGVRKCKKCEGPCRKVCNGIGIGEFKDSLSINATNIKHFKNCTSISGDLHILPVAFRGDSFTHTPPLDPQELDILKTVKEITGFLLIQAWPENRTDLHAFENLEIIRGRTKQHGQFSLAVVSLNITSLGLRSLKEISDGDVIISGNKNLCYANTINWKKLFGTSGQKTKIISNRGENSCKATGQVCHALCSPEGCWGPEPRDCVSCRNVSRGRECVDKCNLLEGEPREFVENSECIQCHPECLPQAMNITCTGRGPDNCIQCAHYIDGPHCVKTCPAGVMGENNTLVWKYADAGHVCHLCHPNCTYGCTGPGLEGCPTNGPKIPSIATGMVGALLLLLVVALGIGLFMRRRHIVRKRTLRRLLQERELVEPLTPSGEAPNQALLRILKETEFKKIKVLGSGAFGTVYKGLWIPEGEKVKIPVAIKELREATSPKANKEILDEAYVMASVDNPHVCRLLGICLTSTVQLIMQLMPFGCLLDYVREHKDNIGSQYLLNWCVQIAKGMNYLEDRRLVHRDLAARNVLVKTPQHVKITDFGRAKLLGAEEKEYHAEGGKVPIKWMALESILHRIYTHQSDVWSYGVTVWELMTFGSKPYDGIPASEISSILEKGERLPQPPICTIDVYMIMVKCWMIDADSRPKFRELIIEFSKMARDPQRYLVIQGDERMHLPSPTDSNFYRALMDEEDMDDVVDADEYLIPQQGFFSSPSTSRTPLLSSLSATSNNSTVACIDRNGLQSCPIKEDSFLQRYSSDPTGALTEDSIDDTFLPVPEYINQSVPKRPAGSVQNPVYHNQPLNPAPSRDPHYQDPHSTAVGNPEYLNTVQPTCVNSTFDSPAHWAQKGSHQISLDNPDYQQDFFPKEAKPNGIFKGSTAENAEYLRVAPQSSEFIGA
Sequence of EGFR (ErbB1) (P00533 25-1210): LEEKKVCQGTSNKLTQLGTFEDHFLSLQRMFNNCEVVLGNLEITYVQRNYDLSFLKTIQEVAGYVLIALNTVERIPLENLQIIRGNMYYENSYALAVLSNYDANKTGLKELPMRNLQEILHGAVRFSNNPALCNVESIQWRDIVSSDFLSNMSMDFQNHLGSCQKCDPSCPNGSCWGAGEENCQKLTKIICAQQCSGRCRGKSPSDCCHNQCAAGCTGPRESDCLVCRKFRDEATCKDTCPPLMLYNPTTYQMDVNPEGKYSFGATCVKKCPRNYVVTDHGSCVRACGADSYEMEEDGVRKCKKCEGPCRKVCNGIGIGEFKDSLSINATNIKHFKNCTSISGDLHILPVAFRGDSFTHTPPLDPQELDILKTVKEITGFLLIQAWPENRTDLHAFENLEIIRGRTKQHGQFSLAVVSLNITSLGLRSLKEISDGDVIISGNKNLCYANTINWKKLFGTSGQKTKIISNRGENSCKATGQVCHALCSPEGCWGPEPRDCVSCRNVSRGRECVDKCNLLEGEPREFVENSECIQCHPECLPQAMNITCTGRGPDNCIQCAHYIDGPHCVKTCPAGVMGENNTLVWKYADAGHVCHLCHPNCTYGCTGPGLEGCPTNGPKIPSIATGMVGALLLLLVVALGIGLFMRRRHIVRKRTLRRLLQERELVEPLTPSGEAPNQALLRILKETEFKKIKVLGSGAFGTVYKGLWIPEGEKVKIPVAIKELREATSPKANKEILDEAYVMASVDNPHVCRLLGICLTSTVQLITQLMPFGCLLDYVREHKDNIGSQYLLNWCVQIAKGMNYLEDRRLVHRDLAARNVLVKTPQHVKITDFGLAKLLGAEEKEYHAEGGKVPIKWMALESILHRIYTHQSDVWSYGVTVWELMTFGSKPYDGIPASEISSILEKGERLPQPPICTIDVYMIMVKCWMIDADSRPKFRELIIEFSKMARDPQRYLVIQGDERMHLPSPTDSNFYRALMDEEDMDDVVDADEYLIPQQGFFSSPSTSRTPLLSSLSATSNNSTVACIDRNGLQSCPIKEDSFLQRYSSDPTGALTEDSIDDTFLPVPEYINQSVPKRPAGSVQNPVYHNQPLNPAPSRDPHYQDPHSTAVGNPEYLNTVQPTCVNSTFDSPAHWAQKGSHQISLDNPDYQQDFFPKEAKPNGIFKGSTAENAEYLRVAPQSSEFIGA

SMILES | IC50 (H1975 cells) | % inhibition EGFR L858R/T790M (Compound at 0.0137 μM) (EGFR (ErbB1) T790M L858R) | % inhibition EGFR (Compound at 0.041 μM) (EGFR (ErbB1)) | Tumor Volume Post-treatment (H1975 tumor xenograft) | Tumor Volume Pre-treatment (H1975 tumor xenograft) | inhibition at 0.0137 µM (EGFR (ErbB1) T790M L858R)
C=CC(=O)Nc1cccc(-c2cccc3cnc(Nc4ccc(N5CCN(CC(N)=O)CC5)cc4F)nc23)c1 [Example C154] | 100 to 500 nM | + (less than 50% inhibition) | + (less than 50% inhibition) |  |  | 
C=CC(=O)Nc1cccc(-c2cccc3cnc(Nc4ccc(N5CCN(CC(N)=O)CC5)c(F)c4)nc23)c1 [Example C164] | 100 to 500 nM | + (less than 50% inhibition) | + (less than 50% inhibition) |  |  | 
C=CC(=O)Nc1cccc(-c2cccc3cnc(Nc4ccc(N5CCN(C)CC5)c(F)c4F)nc23)c1 [Example C156, N-(3-(2-((2,3-difluoro-4-(4-methylpiperazin-1-yl)phenyl)amino)quinazolin-8-yl)phenyl)acrylamide] |  |  |  | 594 mm^3 | 232 mm^3 | 
C=CC(=O)Nc1cccc(-c2cccc3cnc(Nc4ccc(N5CCN(CCO)CC5)cc4F)nc23)c1 [Example C147, N-(3-(2-((2-fluoro-4-(4-(2-hydroxyethyl)piperazin-1-yl)phenyl)amino)quinazolin-8-yl)phenyl)acrylamide] |  |  |  | 898 mm^3 | 240 mm^3 | > 50%
C=CC(=O)Nc1cccc(-c2cccc3cnc(Nc4ccc(N5CCN(CCO)CC5)c(F)c4F)nc23)c1 [Example C151, N-(3-(2-((2,3-difluoro-4-(4-(2-hydroxyethyl)piperazin-1-yl)phenyl)amino)quinazolin-8-yl)phenyl)acrylamide] |  |  |  | 462 mm^3 | 229 mm^3 | > 50%
